From patent publication US8337447B2, “Device for delivery of antifibrotic agents and method” (priority 2006, dated 2012)

Test system: human conjunctival fibroblasts
Test: Polymer cytotoxicity in vitro, toluidine blue staining after 7 days of culture
Type: cell-based
Conditions: MMC incorporated in salt-free P-HEMA hydrogel (Procedure 2), exponential fit, r2 0.95
Method: Measurement of polymer cytotoxicity in vitro: A single 8 mm disk of sterile polymer was affixed to the center of each 60 mm tissue culture dish with clear RTV silicone cement. The silicone cement was sterile as it came from the tube and care was taken during this procedure to maintain the sterility of both the polymer and the tissue culture dish. The cement was allowed to cure for 1-2 hours in a sterile environment, until no odor of acetic acid could be detected. […] The culture medium was removed and the cell layer was gently washed 3 times with 5 ml of phosphate-buffered saline. […] In some cases, the solutions had to be diluted with 2% aqueous sodium dodecyl sulfate to bring the absorbance within the linear range of the spectrophotometer. […]
Once these parameters had been determined, the study was repeated with early passage cultures human conjunctival fibroblasts, the cell type against which these slow release polymers will ultimately be targeted. […]
A single 8 mm disk of polymer was affixed to each culture dish with silicone cement and cells were fixed and stained 7 days after inoculation, as described in Methods. After solubilization of the cell-bound dye, the color (measured as absorbance at 650 nm) was a measure of the number of cells in each dish. […]

## CO[C@@]12[C@H](COC(N)=O)C3=C(C(=O)C(C)=C(N)C3=O)N1C[C@@H]1N[C@@H]12 [MMC, mitomycin C]
  concentration of MMC that inhibited 50% of cell proliferation (IC50): 0.15 mg/g dried gel
